Test results reported in US20090036495A1, “Combinations Comprising Alpha-2-Delta Ligands and Ep4 Receptor Antagonists” (Pfizer, Inc., priority 2004, published 2009).

Test system: Male Sprague-Dawley rats
Assay: Carrageenan-induced mechanical hyperalgesia (CIMH), paw withdrawal threshold
Format: in vivo
Conditions: rat, per orally
Protocol: Carrageenan-induced mechanical hyperalgesia (CIMH)[1] is utilized to evaluate analgesic activity of drugs against acute inflammatory pain.
1% carrageenan is prepared at least two days before use. An appropriate amount of λ-carrageenain is weighed into a 10 ml screw vial. Sterile saline is added to make 1% (w/v) suspension solution and the suspension is stirred for 8 hours with gentle heating to be dissolved obtain homogeneous suspension.
Male Sprague-Dawley rats, 4 W (Japan SLC or Charles River Japan), 100-130 g are used. Environment conditions are controlled at a 12-h light/dark cycle with (lights on 076:00 a.m.). and an ambient temperature of 23+/−2 deg. C. Prior to start the experiment, animals are housed under this condition for 4-5 days. Each group is used a group of 6-8 rats. The rats are fasted for 16-18 hours before use and the rats are trained for measurement of mechanical threshold using the apparatus for two days before use.
The paw withdrawal response of the rat to increased pressure on a right hindpaw is recorded as mechanical threshold. The threshold is defined as “pre value”. Hyperalgesia is induced by intraplantar injection of 0.1 ml of 1% carrageenain in the right hindpaw. The paw withdrawal threshold is measured at 3.5 and 4.5 hours after the carrageenan injection. Rats are randomly grouped by the paw withdrawal threshold at 4.5 hours and pre value after the carrageenan injection. Vehicle or test compounds (10 ml of 0.1% methylcellulose/1 kg body weight) are given per orally at 5.5 hours after the carrageenain injection. The paw withdrawal Mechanical threshold is measured by an analgesy meter at 4, 5, 6.5 and 7.5 hours after the carrageenin carrageenan injection. The threshold at 6.5 or 7.5 hours is determined as ‘post value’.
% change in threshold=(preost value−postre value)/(pre value)×100% inhibition=(B−A)/(C−A)×100
A=average of % change in threshold post values in disease control (vehicle treated) group B=average of % change in threshold post values in compound treated group C=average of pre values of all rats used
% inhibition=(A−B)/|A|×100
The data is analyzed with unpaired t-test or one-way ANOVA (plus multiple comparison test) for % change in thresholdpost values. Results are considered significant when p<0.05 versus disease control group.

| SMILES | Inhibition (%) 2 hours post dosing (dose 0.3 mg/kg) [%] | Inhibition (%) 2 hours post dosing (dose 1 mg/kg) [%] | Inhibition (%) 2 hours post dosing (dose 3 mg/kg) [%] | Inhibition (%) 2 hours post dosing (dose 10 mg/kg) [%] | Inhibition (%) 2 hours post dosing (dose 30 mg/kg) [%] | Inhibition (%) 2 hours post dosing (dose 100 mg/kg) [%] |
| --- | --- | --- | --- | --- | --- | --- |
| C[C@H](NC(=O)c1cc(Cl)cnc1Oc1cccc(F)c1)c1ccc(C(=O)O)cc1 [4-[(1S)-1-({[5-chloro-2-(3-fluorophenoxy)pyridin-3-yl]carbonyl}amino)ethyl]benzoic acid] | 19.2 | 41.9 | 50 | – | – | – |
| CC(C)C[C@H](CN)CC(=O)O [Pregabalin, (S)-(+)-4-amino-3-(2-methylpropyl)butanoic acid] | – | – | 1.6 | 8.4 | 16.4 | 31 |
